Assay results from patent US20200276217A1 (priority 2017, published 2020).

How the values were obtained:
[1] = tested on: influenza A virus A/Puerto Rico/8/34(PR8)-Luc (IAV-Luc); format: cell-based
[2] = molecular target: RNA polymerase of influenza virus (Influenza A virus, UniProt P03428+P03431+P03433); format: cell-based
[3] = tested on: HA/NA-HIVLuc pseudovirus; format: cell-based, influenza virus; settings: A549 cells, pre-incubated 8 h with concentration gradients, relative to absolute ethyl alcohol, FIG. 5
[4] = tested on: IAV-Luc influenza virus (A/Puerto Rico/8/34(PR8)-Luc); format: cell-based; settings: 10 μM, A549 cells, three treatment schemes, detection after 24 h, FIG. 7
[5] = tested on: A/WSN33/H1N1 influenza virus; assay: Prophylactic treatment of influenza-infected mice, lung index; settings: 50 mg/kg intragastric, from two days before infection and 5 days after; 40 LD50 via nasal dripping; compared with 50 mg/kg ribavirin; FIG. 4
Text: […] Barb/C mice (6- to 8-week old) were randomly divided into 4 groups (A, B, C, D) with 5 mice in each group. All animals were marked by ear clipping and then treated with a specified preparation. Group A was a blank control group, Group B was a group in which PBS was used to resist virus infection, Group C was a group in which ribavirin was used to resist virus infection, and Group D was a group in which azithromycin was used to resist virus infection. Two days before the drugs being used to resist virus infection, the mice were treated with 50 mg/kg ribavirin and 50 mg/kg azithromycin by intragastric administration, and were infected with the influenza virus via nasal dripping with a dose of 40 LD50 (10^3 PFU/ml) on the third day (50 μl/mouse), and PBS was administered instead in the blank control group. The mice were administered consecutively for 5 days after virus infection, and the administration method was same as above. After 12 hours of fasting and water deprivation, the body weights were weighed, the lungs were incised aseptically and weighed after the mice were sacrificed by eyeball extirpating, and the lung indexes were calculated so as to evaluate the protective effect of azithromycin for mice in influenza virus infection, in which the calculation method of the lung index was a conventional calculation method known in the art.

## erythromycin
[1]
  ability to resist influenza virus infection (infection rate relative to absolute ethyl alcohol control): had the ability to resist influenza virus infection

## roxithromycin
[1]
  ability to resist influenza virus infection (infection rate relative to absolute ethyl alcohol control): had the ability to resist influenza virus infection

## azithromycin
[2]
  effect on the replication of the RNA polymerase of influenza virus: did not affect the replication of the RNA polymerase of influenza virus
[1]
  ability to resist influenza virus infection (infection rate relative to absolute ethyl alcohol control): had the ability to resist influenza virus infection
[1]; 10 μM, A549 cells, FIG. 1
  efficacy against influenza virus infection compared among the macrolide antibiotics: had the strongest efficacy
[1]; 10 μM, A549 cells, FIG. 2
  inhibitory effect against influenza virus infection in the screening of small molecule compounds: quite strong inhibitory effect against influenza virus infection
[1]; same concentration (10 μM), A549 cells, FIG. 3
  ability to resist influenza virus infection compared with oseltamivir: stronger than that of oseltamivir
[3]
  inhibition of influenza virus (pseudovirus) infection at various concentrations: inhibited influenza virus infection and the inhibitory effect was concentration-dependent
[4]
  site of antiviral action (host cell versus virus particles): exerted antiviral effect mainly by acting on the virus particles
[5]
  protective effect for mice in influenza virus infection (lung index): better protective effect for mice in influenza virus infection as compared with ribavirin

## midecamycin
[1]
  ability to resist influenza virus infection (infection rate relative to absolute ethyl alcohol control): had the ability to resist influenza virus infection
